Laboratory results taken from ChEMBL document CHEMBL4513149, “CO-ADD screening of MMV (CH) - MMV compounds” (2021).
≈ marks a conversion by molar mass, not a printed value.

What was measured:
HEK293 = test: cells; assay type: functional; conditions: Homo sapiens, ATCC CRL1573, HEK293; ASSAY_TEST Inhibition of Cell Viability; detection method Resazurin; Fluorescence (ex560/em590); MEDIA DMEM with 10% FBS; plate type 384well; TC; CORNING #3712; time 18 hr
Staphylococcus aureus = test: microbe, parasite or virus in culture; conditions: ATCC 43300, 18 h, ASSAY_TEST Inhibition of Bacterial Growth, detection method Absorption (OD600), MEDIA CAMHB, plate type 384well, NBS, CORNING #3640
Description: Antibacterial activity against Staphylococcus aureus MRSA ATCC 43300 (CO-ADD:GP_020); MIC in CAMBH media, using NBS plates, by OD(600)

Escherichia coli = test: microbe, parasite or virus in culture; conditions: ATCC 25922, 18 h, ASSAY_TEST Inhibition of Bacterial Growth, detection method Absorption (OD600), MEDIA CAMHB, plate type 384well, NBS, CORNING #3640
Description: Antibacterial activity against Escherichia coli ATCC 25922 (CO-ADD:GN_001); MIC in CAMBH media using NBS plates, by OD(600)

Klebsiella pneumoniae = test: microbe, parasite or virus in culture; conditions: ATCC 700603, 18 h, ASSAY_TEST Inhibition of Bacterial Growth, detection method Absorption (OD600), MEDIA CAMHB, plate type 384well, NBS, CORNING #3640
Description: Antibacterial activity against Klebsiella pneumoniae MDR ATCC 70063 (CO-ADD:GN_003); MIC in CAMBH media using NBS plates, by OD(600)

Pseudomonas aeruginosa = test: microbe, parasite or virus in culture; conditions: ATCC 27853, 18 h, ASSAY_TEST Inhibition of Bacterial Growth, detection method Absorption (OD600), MEDIA CAMHB, plate type 384well, NBS, CORNING #3640
Description: Antibacterial activity against Pseudomonas aeruginosa ATCC 27853 (CO-ADD:GN_042); MIC in CAMBH media using NBS plates, by OD(600)

Acinetobacter baumannii = test: microbe, parasite or virus in culture; conditions: ATCC 19606, 18 h, ASSAY_TEST Inhibition of Bacterial Growth, detection method Absorption (OD600), MEDIA CAMHB, plate type 384well, NBS, CORNING #3640
Description: Antibacterial activity against Acinetobacter baumannii ATCC 19606 (CO-ADD:GN_034); MIC in CAMBH media using NBS plates, by OD600

Candida albicans = test: microbe, parasite or virus in culture; conditions: ATCC 90028, ASSAY_TEST Inhibition of Fungal Growth, detection method Absorption (OD530), plate type 384well, NBS, CORNING #3640
Description: Antifungal activity against Candida albicans ATCC 90028 (CO-ADD:FG_001); MIC in YNB media using NBS plates, by OD630

Description for Cryptococcus neoformans: Antifungal activity against Cryptococcus neoformans H99 ATCC 208821 (CO-ADD:FG_002); MIC in YNB media using NBS plates, by Resazurin OD(600-570)

Compound | CC50 (HEK293) [µM] | MIC (Cryptococcus neoformans) [µM] | MIC (Staphylococcus aureus) [µM] | MIC (Escherichia coli) [µM] | MIC (Klebsiella pneumoniae) [µM] | MIC (Pseudomonas aeruginosa) [µM] | MIC (Acinetobacter baumannii) [µM] | MIC (Candida albicans) [µM]
O=C(Nc1nnc(-c2ccc(Cl)cc2)o1)c1cccc(C(F)(F)F)c1 | > 10 | > 10 | > 10 | > 10 | > 10 | > 10 | > 10 | > 10
O=C(COc1cccc(F)c1)Nc1nc(-c2ccccn2)cs1 | > 10 | > 10 | > 10 | > 10 | > 10 | > 10 | > 10 | > 10
Brc1cncc(-c2cc(NCCCn3ccnc3)nc(-c3ccccc3)n2)c1 | > 10 | > 10 | > 10 | > 10 | > 10 | > 10 | > 10 | > 10
CCc1c(C)nc(-n2nc(C)cc2NC(=O)c2ccccc2SC)[nH]c1=O | > 10 | > 10 | > 10 | > 10 | > 10 | > 10 | > 10 | > 10
O=C(Nc1nnc(-c2ccc(Cl)s2)o1)c1ccc(Cl)s1 | > 10 | > 10 | 10 (≈ 3.46 µg/mL) | > 10 | > 10 | > 10 | > 10 | > 10
COc1cccc(-c2nc3c(N4CCCC4)cccc3n2CC2CCCN2)n1 (centres undefined) | > 10 | > 10 | 10 (≈ 3.77 µg/mL) | > 10 | > 10 | > 10 | > 10 | > 10
O=C(c1ccco1)N(CCCn1ccnc1)c1nc2c(Cl)cccc2s1 | > 10 | > 10 | > 10 | > 10 | > 10 | > 10 | > 10 | > 10
CC(=O)N1CCN(c2ccc(Oc3ccc(Cl)cc3O)cc2)CC1 | > 10 | > 10 | > 10 | > 10 | > 10 | > 10 | > 10 | > 10
O=C(Nc1ccc2c(c1)B(O)OC2)c1ccccc1C(F)(F)F | > 10 | > 10 | > 10 | > 10 | > 10 | > 10 | > 10 | > 10
O=C([C@@H](c1ccc(Cl)cc1)c1cccnc1)N1CCN(c2ccc(C(F)(F)F)cc2)CC1 | > 10 | > 10 | > 10 | > 10 | > 10 | > 10 | > 10 | > 10
CCOC(=O)NC(=O)c1ccsc1NC(=O)c1nc2ccccc2s1 | > 10 | > 10 | > 10 | > 10 | > 10 | > 10 | > 10 | > 10
Cc1nn2c(=O)c3c([nH]c2c1-c1ccc(Cl)cc1)CCCC3 | > 10 | > 10 | > 10 | > 10 | > 10 | > 10 | > 10 | > 10
CC(c1cc(Cl)cc(Cl)c1)N(C)c1ncc2c(N)nc(N)nc2n1 (centres undefined) | > 10 | > 10 | 10 (≈ 3.64 µg/mL) | > 10 | > 10 | > 10 | > 10 | > 10
NC(CC(=O)c1ccc(Cl)cc1Cl)C(Cl)(Cl)Cl (centres undefined) | > 10 | > 10 | > 10 | > 10 | > 10 | > 10 | > 10 | > 10
O=C1O[C@@H](CO)CN1c1cc(F)c(C2=CCN(Cc3ccccc3)CC2)c(F)c1 | > 10 | > 10 | > 10 | > 10 | > 10 | > 10 | > 10 | > 10
COc1cccc(-n2nnnc2S(=O)(=O)Cc2ccccc2)c1 | > 10 | > 10 | > 10 | > 10 | > 10 | > 10 | > 10 | > 10
c1csc(-c2cnc3sc(NCC4CCOCC4)nn23)c1 | > 10 | > 10 | > 10 | > 10 | > 10 | > 10 | > 10 | > 10
CCCn1c(NC(=O)c2ccc3ccccc3n2)nc2ccccc21 | > 10 | > 10 | > 10 | > 10 | > 10 | > 10 | > 10 | > 10
Nc1ccc2ncnc(Nc3ccc(OCc4cccc(F)c4)c(Cl)c3)c2c1 | > 10 | > 10 | > 10 | > 10 | > 10 | > 10 | > 10 | > 10
NCCN(C(=O)c1ccc(Cl)cc1Cl)c1ccc(OCc2ccc(Cl)cc2)cc1 | > 10 | > 10 | 10 (≈ 4.5 µg/mL) | > 10 | > 10 | > 10 | > 10 | > 10
CO/N=C(\C(=O)OC)c1ccccc1CO/N=C(\C)c1cccc(C(F)(F)F)c1 | > 10 | > 10 | > 10 | > 10 | > 10 | > 10 | > 10 | > 10
Cc1[nH]c2ccccc2c1C(c1cccs1)N1CCN(C)CC1 (centres undefined) | > 10 | > 10 | > 10 | > 10 | > 10 | > 10 | > 10 | 5 (≈ 1.63 µg/mL)
O=C(Nc1ccccc1)c1ccc(-c2cc3ccncc3cc2OC2CCNCC2)s1 | > 10 | > 10 | > 10 | > 10 | > 10 | > 10 | > 10 | > 10
Cc1nc(-c2ccccn2)nc(N(C)CCc2ccccc2)c1Cl | > 10 | > 10 | > 10 | > 10 | > 10 | > 10 | > 10 | > 10
Cc1nc(-c2ccccn2)nc(N2CCC(Cc3ccccc3)C2)c1Cl (centres undefined) | > 10 | ≤ 0.0781 | > 10 | > 10 | > 10 | > 10 | > 10 | 0.156 (≈ 0.057 µg/mL)
COc1cc(C2=NCCN2)cc2cc(-c3ccc(C4=NCCN4)cc3)oc12 | > 10 | > 10 | > 10 | > 10 | > 10 | > 10 | > 10 | > 10
Cc1ccc2c(c1C)NC(=O)C21NN=C(c2ccccc2)S1 (centres undefined) | > 10 | > 10 | > 10 | > 10 | > 10 | > 10 | > 10 | > 10
COc1ccc(OC)c(NCc2ccc3nc(N)nc(N)c3c2Cl)c1 | > 10 | > 10 | 0.625 (≈ 0.225 µg/mL) | 2.5 (≈ 0.9 µg/mL) | 10 (≈ 3.6 µg/mL) | 2.5 (≈ 0.9 µg/mL) | > 10 | > 10
